The values below come from ChEMBL document CHEMBL4616596, “Structural insights into the active site of poly(ADP-ribose) glycohydrolase using docking modes of 6-hydroxy-3H-xanthen-3-one derivative inhibitors” (Bioorg Med Chem, 2020).

Where only a bound is given, the exact number is not on record here.

The test concerns the target Poly(ADP-ribose) glycohydrolase (Homo sapiens, UniProt Q86W56). The test can be described thus: Inhibition of recombinant human PARG assessed as mono(ADP-R) release using PAR as substrate measured after 15 mins by HPLC analysis.

Chain of Poly(ADP-ribose) glycohydrolase (Q86W56 whole entry): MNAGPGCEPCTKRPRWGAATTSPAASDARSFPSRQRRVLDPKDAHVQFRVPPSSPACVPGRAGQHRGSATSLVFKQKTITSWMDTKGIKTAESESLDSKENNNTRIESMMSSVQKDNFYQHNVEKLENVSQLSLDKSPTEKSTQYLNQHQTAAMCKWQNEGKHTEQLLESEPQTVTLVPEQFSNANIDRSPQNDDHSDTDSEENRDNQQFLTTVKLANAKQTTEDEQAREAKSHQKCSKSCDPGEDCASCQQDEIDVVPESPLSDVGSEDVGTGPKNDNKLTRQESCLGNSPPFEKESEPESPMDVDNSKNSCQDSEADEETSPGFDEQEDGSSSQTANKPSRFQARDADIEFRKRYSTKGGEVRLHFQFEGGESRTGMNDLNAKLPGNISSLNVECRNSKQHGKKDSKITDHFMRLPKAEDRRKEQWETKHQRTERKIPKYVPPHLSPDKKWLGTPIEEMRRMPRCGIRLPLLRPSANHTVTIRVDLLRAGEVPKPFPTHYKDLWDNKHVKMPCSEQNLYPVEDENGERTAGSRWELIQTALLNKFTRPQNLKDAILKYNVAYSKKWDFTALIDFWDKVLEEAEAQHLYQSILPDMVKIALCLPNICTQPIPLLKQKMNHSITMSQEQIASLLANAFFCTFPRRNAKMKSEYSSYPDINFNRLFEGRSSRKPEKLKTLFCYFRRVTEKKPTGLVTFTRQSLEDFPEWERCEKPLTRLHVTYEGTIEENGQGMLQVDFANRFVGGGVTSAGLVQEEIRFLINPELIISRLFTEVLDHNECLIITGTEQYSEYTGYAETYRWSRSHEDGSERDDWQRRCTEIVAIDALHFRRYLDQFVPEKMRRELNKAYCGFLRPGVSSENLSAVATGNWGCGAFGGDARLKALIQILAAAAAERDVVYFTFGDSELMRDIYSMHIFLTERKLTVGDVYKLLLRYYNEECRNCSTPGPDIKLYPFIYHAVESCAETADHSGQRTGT

On to `O=C(O)c1c(Cl)ccc(Cl)c1-c1c2cc(I)c(=O)c(I)c-2oc2c(I)c(O)c(I)cc12`, for which the IC50 stood at 61.4 µM.

Regarding `O=C(O)c1c(Cl)c(Cl)c(Cl)c(Cl)c1-c1c2cc(I)c(=O)c(I)c-2oc2c(I)c(O)c(I)cc12` [ROSE BENGAL FREE ACID], the IC50 is 29.7 µM.

With `O=C(O)c1ccccc1-c1c2cc(I)c(=O)c(I)c-2oc2c(I)c(O)c(I)cc12`, the half-maximal inhibitory concentration (IC50) was determined as 120 µM.

As to `O=C(O)c1c(Cl)c(Cl)c(Cl)c(Cl)c1-c1c2cc(Br)c(=O)c(Br)c-2oc2c(Br)c(O)c(Br)cc12`, the concentration for half-maximal inhibition (IC50) came to 106 µM.

On to `O=C(O)c1ccccc1-c1c2cc(Br)c(=O)c(Br)c-2oc2c(Br)c(O)c(Br)cc12`, for which the IC50 was over 300 µM.
